This is an account of results in US20090036440A1, “NOVEL PYRIMIDINE DERIVATIVES - 816” (AstraZeneca AB, priority 2007, published 2009).

Test [1] concerns the target T1, recombinant EphB4 (Homo sapiens, UniProt P54760).
T1 construct: recombinant active EphB4 (amino acids 563-987; Swiss-Prot Acc; No. P54760); purchased ProQinase GmbH 0178-0000-3
T1 sequence (P54760 563-987): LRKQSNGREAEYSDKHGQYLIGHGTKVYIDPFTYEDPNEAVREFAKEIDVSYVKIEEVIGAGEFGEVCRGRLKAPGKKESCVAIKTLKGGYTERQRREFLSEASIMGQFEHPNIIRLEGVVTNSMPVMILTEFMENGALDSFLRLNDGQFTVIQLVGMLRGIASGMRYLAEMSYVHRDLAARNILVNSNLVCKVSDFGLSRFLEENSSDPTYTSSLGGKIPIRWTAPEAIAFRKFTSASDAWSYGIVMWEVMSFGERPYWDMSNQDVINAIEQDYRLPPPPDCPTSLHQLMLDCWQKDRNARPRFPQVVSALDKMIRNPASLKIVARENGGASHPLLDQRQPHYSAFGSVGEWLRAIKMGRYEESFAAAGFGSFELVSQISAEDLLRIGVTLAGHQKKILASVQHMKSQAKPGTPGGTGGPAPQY
Briefly: In vitro EphB4 enzyme assay (Alphascreen). The class given is biochemical. The procedure: This assay detects inhibitors of EphB4-mediated phosphorylation of a polypeptide substrate using Alphascreen™ luminescence detection technology. Briefly, recombinant EphB4 was incubated with a biotinylated-polypeptide substrate (biotin-poly-GAT) in presence of magnesium-ATP. The reaction was stopped by addition of EDTA, together with streptavidin-coated donor beads which bind the biotin-substrate containing any phosphorylated tyrosine residues. Anti-phosphotyrosine antibodies present on acceptor beads bind to phosphorylated substrate, thus bringing the donor & acceptor beads into close proximity. Subsequent excitation of the donor beads at 680 nm generated singlet oxygen species that interact with a chemiluminescer on the acceptor beads, leading to light emission at 520-620 nm. The signal intensity is directly proportional to the level of substrate phosphorylation and thus inhibition is measured by a decrease in signal.
To ensure that each well contained a total of 120 nl DMSO the wells were all backfilled as required. […] The test range of compounds was 100× the required final concentration.
Assay plates were then incubated at room temperature for 1 hour.
For assays using compounds prepared via acoustic dispensing, the assay mix was adjusted such that the final assay volume of 12 ul contained the same concentration of reagent as 10 ul of assay mix used when aqueous compounds were tested.
The plates were sealed under natural lighting conditions, wrapped in aluminium foil and incubated in the dark for a further 20 hours.
The resulting assay signal was determined on the Perkin Elmer EnVision plate reader. The minimum value was subtracted from all values, and the signal plotted against compound concentration to generate IC50 data. The method used to generate the compound dilutions was recorded with the IC50 value in the database.
For orientation: In Alpha technology, singlet oxygen from a donor bead excites a nearby acceptor bead.

The target in test [2] is T2, human EphB4 (Homo sapiens, UniProt P54760).
T2 construct: to generate full-length EphB4 containing a Myc-His tag at the C-terminus; expressed in transfected cells; EphB4-CHO)
T2 sequence (P54760 16-987): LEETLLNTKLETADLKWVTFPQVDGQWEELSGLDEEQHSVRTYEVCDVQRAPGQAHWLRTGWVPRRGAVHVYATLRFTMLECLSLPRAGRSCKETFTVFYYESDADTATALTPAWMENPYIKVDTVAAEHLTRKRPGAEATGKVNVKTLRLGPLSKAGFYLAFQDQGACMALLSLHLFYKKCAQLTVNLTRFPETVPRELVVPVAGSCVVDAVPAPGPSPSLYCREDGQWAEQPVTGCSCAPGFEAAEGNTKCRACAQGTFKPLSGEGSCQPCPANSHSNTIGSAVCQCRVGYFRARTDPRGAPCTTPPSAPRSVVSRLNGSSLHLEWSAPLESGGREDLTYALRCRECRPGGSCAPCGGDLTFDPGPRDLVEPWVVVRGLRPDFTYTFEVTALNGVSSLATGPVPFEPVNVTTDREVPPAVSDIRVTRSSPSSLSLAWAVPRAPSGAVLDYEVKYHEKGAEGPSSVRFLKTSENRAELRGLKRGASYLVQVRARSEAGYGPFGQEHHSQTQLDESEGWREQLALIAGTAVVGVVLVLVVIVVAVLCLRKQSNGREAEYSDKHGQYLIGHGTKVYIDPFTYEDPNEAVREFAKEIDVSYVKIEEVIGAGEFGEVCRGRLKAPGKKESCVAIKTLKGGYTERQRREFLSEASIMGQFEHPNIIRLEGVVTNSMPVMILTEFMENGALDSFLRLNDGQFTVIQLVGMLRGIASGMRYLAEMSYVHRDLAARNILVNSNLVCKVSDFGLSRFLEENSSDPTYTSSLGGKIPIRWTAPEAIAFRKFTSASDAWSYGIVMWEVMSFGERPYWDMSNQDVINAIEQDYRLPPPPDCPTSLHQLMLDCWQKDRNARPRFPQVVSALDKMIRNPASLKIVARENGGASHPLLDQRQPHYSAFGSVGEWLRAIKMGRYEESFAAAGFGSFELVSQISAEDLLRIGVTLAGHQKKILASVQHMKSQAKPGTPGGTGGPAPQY
Briefly: In vitro EphB4 cell assay (EphB4 phosphorylation ELISA in EphB4-CHO cells). The conditions noted are these: ephrin-B2 stimulated EphB4 phosphorylation, read-out: Mean IC50 values obtained using Assay B. Type of test: cell-based. The procedure: The assay identifies inhibitors of cellular EphB4 by measuring a decrease in phosphorylation of EphB4 following treatment of cells with compound. The endpoint assay used a sandwich ELISA to detect EphB4 phosphorylation status. Briefly, Myc-tagged EphB4 from treated cell lysate was captured on the ELISA plate via an anti-c-Myc antibody. The phosphorylation status of captured EphB4 was then measured using a generic phosphotyrosine antibody conjugated to HRP via a calorimetric output catalysed by HRP, with level of EphB4 phosphorylation directly proportional to the colour intensity. Absorbance was measured spectrophotometrically at 450 nm.
Full length human EphB4 (Swiss-Prot Acc. No. P54760) was cloned using standard techniques from cDNA prepared from HUVEC using RT-PCR. The cDNA fragment was then sub-cloned into a pcDNA3.1 expression vector containing a Myc-His epitope tag to generate full-length EphB4 containing a Myc-His tag at the C-terminus (Invitrogen Ltd. Paisley, UK). CHO-K1 cells (LGC Promochem, Teddington, Middlesex, UK, Catalogue No. CCL-61) were maintained in HAM's F12 medium (Sigma-Aldrich Company Ltd, Gillingham, Dorset SP8 4XT, Catalogue No. N4888) containing 10% heat-inactivated foetal calf serum (PAA lab GmbH, Pasching, Austria Catalogue No. PAA-A15-043) and 1% glutamax-1 (Invitrogen Ltd., Catalogue No. 35050-038) at 37° C. with 5% CO2. CHO-K1 cells were engineered to stably express the EphB4-Myc-His construct using standard stable transfection techniques, to generate cells hereafter termed EphB4-CHO.
For each assay, 10,000 EphB4-CHO cells were seeded into each well of Costar 96-well tissue-culture plate (Fisher Scientific UK, Loughborough, Leicestershire, UK., Catalogue No. 3598) and cultured overnight in full media. On day 2, the cells were incubated overnight in 90 μl/well of media containing 0.1% Hyclone stripped-serum (Fisher Scientific UK, Catalogue No. SH30068.02). Test compounds were prepared as 10 mM stock solutions in DMSO (Sigma-Aldrich Company Ltd, Gillingham, Dorset SP8 4XT Catalogue No. 154938) and serially diluted with serum-free media to give a range of test concentrations at 10× the required final concentration. A 10 μl aliquot of each compound dilution was transferred to the cell plates in duplicate wells, and the cells incubated for 1 hour at 37° C. Each plate also contained control wells: a maximum signal was created using untreated cells, and minimum signal corresponding to 100% inhibition was created using wells containing a reference compound known to abolish EphB4 activity. […]
In general terms: ELISA stands for enzyme-linked immunosorbent assay.

Setting [3] is: compound preparation: Genesis (aqueous dilution).
The mark [4] stands for this setting: compound preparation: Echo (acoustic dispensing).

In the case of `CN(c1ccnc(Nc2cc(Cl)cc(N3CCOCC3)n2)n1)c1ccc(F)c(Cl)c1F` [Example 1, N′-(3-chloro-2,4-difluoro-phenyl)-N-(4-chloro-6-morpholin-4-yl-pyridin-2-yl)-N′-methyl-pyrimidine-2,4-diamine], the values for the IC50 in test [1] (setting [3]) and in test [2] were 38300 nM and 354 nM, respectively.

For `CN(c1ccnc(Nc2cc(N3CCOCC3)nc(N3CCOCC3)c2)n1)c1ccc(F)c(Cl)c1F` [Example 2.1, N′-(3-chloro-2,4-difluoro-phenyl)-N-(2,6-dimorpholin-4-ylpyridin-4-yl)-N′-methyl-pyrimidine-2,4-diamine], the IC50 (as a rule, the point on the concentration scale where inhibition reaches its midpoint) in test [1] (setting [3]) turned out to be 1120 nM; in test [2], 8 nM.

As for `CN(c1ccnc(Nc2cc(N3CCOCC3)cc(N3CCOCC3)n2)n1)c1ccc(F)c(Cl)c1F` [Example 2.2, N′-(3-chloro-2,4-difluoro-phenyl)-N-(4,6-dimorpholin-4-ylpyridin-2-yl)-N′-methyl-pyrimidine-2,4-diamine], the IC50 in test [1] (setting [3]) turned out to be 808 nM.

For the compound `CN(c1ccnc(Nc2cc(Cl)nc(N3CCOCC3)c2)n1)c1ccc(F)c(Cl)c1F` [Example 2.3, N′-(3-chloro-2,4-difluoro-phenyl)-N-(2-chloro-6-morpholin-4-yl-pyridin-4-yl)-N′-methyl-pyrimidine-2,4-diamine], in test [1] (setting [3]), the IC50 is 1780 nM.

For the compound `CN(c1ccnc(Nc2cc(N3CCOCC3)nc(N3CCOCC3)n2)n1)c1ccc(F)c(Cl)c1F` [Example 2.4, N′-(3-chloro-2,4-difluoro-phenyl)-N-(2,6-dimorpholin-4-ylpyrimidin-4-yl)-N′-methyl-pyrimidine-2,4-diamine], the IC50 in test [1] (setting [3]) was determined as 6270 nM.

With `Cc1ccc(CO)cc1N(C)c1ccnc(Nc2cc(Cl)cc(N3CCOCC3)n2)n1` [Example 3, [3-[[2-[(4-chloro-6-morpholin-4-yl-pyridin-2-yl)amino]pyrimidin-4-yl]-methyl-amino]-4-methyl-phenyl]methanol], the values for the half-inhibitory concentration (IC50) in test [1] (setting [3]) and in test [2] were 198 nM and 28 nM, respectively.

In the case of `Cc1ccc(CO)cc1N(C)c1ccnc(Nc2cc(N3CCOCC3)cc(N3CCOCC3)n2)n1` [Example 4.2, [3-[[2-[(4,6-dimorpholin-4-ylpyridin-2-yl)amino]pyrimidin-4-yl]-methyl-amino]-4-methyl-phenyl]methanol], the IC50 was 456 nM in test [1] (setting [3]) and 302 nM in test [2].

Consider `Cc1ccc(CO)cc1N(C)c1ccnc(Nc2cc(Cl)nc(N3CCOCC3)c2)n1` [Example 4.3, [3-[[2-[(2-chloro-6-morpholin-4-yl-pyridin-4-yl)amino]pyrimidin-4-yl]-methyl-amino]-4-methyl-phenyl]methanol], for which the IC50 in test [1] (setting [3]) worked out at 473 nM.

Take `COc1ccc(C)c(N(C)c2ccnc(Nc3cc(N4CCOCC4)nc(N4CCN(C)CC4)c3)n2)c1` [Example 5.1, N4-(5-methoxy-2-methylphenyl)-N4-methyl-N2-(2-(4-methylpiperazin-1-yl)-6-morpholinopyridin-4-yl)pyrimidine-2,4-diamine]: the IC50 in test [1] (setting [4]) amounted to 2.31 nM.

`COc1ccc(C)c(N(C)c2ccnc(Nc3cc(N4CCOCC4)nc(N4CCC(O)CC4)c3)n2)c1` [Example 5.2, 1-(4-(4-((5-methoxy-2-methylphenyl)(methyl)amino)pyrimidin-2-ylamino)-6-morpholinopyridin-2-yl)piperidin-4-ol]: in test [1] (setting [4]), the IC50 is 3.25 nM.
